Measurements published in patent US9725442B2, “Heterocyclic derivative having PGD2 receptor antagonist activity” (Shionogi & Co., Ltd., priority 2011, dated 2017).
Like-named read-outs stand apart in the source and are kept apart here.

How the values were obtained:
[1] = target: CRTH2 (Homo sapiens (Human), UniProt Q9Y5Y4); assay: CRTH2 receptor binding inhibitory activity ([3H]-PGD2 displacement, membranes of CRTH2-expressing K562 cell)
Summary of the method: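 Incubation ran 60 min at room temperature using 20 μg/well membrane from CRTH2-expressing K562 cells in pH 7.4 Tris/HCl (50 mM) with 10 mM MgCl2.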

[2] = target: Human DP1 receptor (Homo sapiens (Human), UniProt Q13258); assay: Human DP1 inhibitory activity in DP1-expressing cell (PGD2-induced cAMP); assay type: cell-based
Human DP1 receptor, sequence (Q13258 whole entry): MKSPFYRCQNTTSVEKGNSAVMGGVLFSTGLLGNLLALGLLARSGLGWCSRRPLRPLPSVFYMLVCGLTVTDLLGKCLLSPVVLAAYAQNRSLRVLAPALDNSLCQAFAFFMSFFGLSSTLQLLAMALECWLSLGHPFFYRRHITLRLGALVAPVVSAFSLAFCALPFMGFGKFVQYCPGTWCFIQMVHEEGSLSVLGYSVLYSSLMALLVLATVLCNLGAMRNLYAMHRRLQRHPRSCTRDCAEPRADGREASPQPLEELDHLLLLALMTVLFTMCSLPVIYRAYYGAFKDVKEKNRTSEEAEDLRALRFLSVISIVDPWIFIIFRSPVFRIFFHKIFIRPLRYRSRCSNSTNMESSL
Method: Compounds were categorized as AA (cAMP is less than 100 nM) and A (cAMP is more than 100 nM and less than 5000 nM) as shown in Table 99 and 100.

[3] = CRTH2 receptor binding, [3H]-PGD2 displacement, membrane of CRTH2-expressing K562 cell, categorized AAAA/AAA, read-out: Ki
[4] = category of cAMP IC50, human DP1 receptor expressing Jurkut cell
[5] = [3H]-PGD2 displacement, membrane of CRTH2-expressing K562 cell, read-out: Ki

CRTH2, sequence (Q9Y5Y4 whole entry): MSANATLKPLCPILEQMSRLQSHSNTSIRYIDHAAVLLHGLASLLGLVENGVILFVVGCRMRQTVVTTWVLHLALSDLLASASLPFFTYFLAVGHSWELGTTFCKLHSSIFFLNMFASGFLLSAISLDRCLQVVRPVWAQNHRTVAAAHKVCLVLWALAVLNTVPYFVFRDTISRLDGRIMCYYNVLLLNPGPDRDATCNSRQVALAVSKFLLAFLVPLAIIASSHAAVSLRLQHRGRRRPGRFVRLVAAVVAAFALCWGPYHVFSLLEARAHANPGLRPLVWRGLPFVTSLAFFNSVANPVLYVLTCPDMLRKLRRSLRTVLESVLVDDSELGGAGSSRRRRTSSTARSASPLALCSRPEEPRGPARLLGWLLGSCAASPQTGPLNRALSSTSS

With `CC(C)Oc1ccc(S(=O)(=O)N2C[C@H](n3nc(CC(=O)O)c4ccc(F)cc43)CC23CC3)cc1` [Compound I-54] the Ki [1, 3] was under 100 nM and the IC50 [2, 4] was 100 to 5000 nM.
Molecule `CCOc1ccc(S(=O)(=O)N2C[C@@H](C)[C@@H](n3cc(CC(=O)O)c4ccc(C)cc43)C2)cc1` [Compound I-271] has a Ki [1, 3] of under 100 nM and an IC50 [2, 4] of under 100 nM.
Molecule `CCOc1ccc(S(=O)(=O)N2C[C@@H](C)[C@@H](n3nc(CC(=O)NS(C)(=O)=O)c4ccccc43)C2)cc1` [Compound I-212] has a Ki [1, 3] of 100 to 5000 nM and an IC50 [2, 4] of 100 to 5000 nM.
With `CC(C)Oc1ccc(S(=O)(=O)N2C[C@H](n3nc(CC(=O)O)c4ccc(F)cc43)C[C@@H]2COc2cccc(O)c2)cc1` [Compound I-346] the Ki [1, 3] was under 100 nM and the IC50 [2, 4] was under 100 nM.
For `CC(C)Oc1ccc(S(=O)(=O)N2C[C@H](n3nc(CC(=O)O)c4ccc(F)cc43)C[C@@H]2c2ccccc2)cc1` [Compound I-360], the Ki [1, 3] was under 100 nM, the Ki [1, 5] was 30 nM and the IC50 [2, 4] was under 100 nM.
Work on `Cc1ccc(S(=O)(=O)N2C[C@H](n3c(C)c(CC(=O)O)c4ccccc43)C[C@@H]2C)cc1` [Compound I-318] yielded a Ki [1, 3] of 100 to 5000 nM and an IC50 [2, 4] of 100 to 5000 nM.
`C[C@@H]1CN(S(=O)(=O)c2ccccc2C#N)C[C@@H]1n1nc(CC(=O)O)c2ccc(F)cc21` [Compound I-124] was tested, and the Ki [1, 3] was under 100 nM and the IC50 [2, 4] was 100 to 5000 nM.
`CCOc1ccc(S(=O)(=O)N2C[C@H](C)[C@@H](n3nc(CC(=O)O)c4ccccc43)C2)cc1` [Compound I-198] showed a Ki [1, 3] of under 100 nM and an IC50 [2, 4] of 100 to 5000 nM.
Molecule `C[C@@H]1CN(S(=O)(=O)c2ccc(OC(F)(F)F)cc2)C[C@@H]1n1nc(CC(=O)O)c2ccc(F)cc21` [Compound I-120] has a Ki [1, 3] of under 100 nM and an IC50 [2, 4] of under 100 nM.
For `CC(C)Oc1ccc(S(=O)(=O)N2C[C@@H](CCF)[C@@H](n3nc(CC(=O)O)c4ccc(F)cc43)C2)cc1` [Compound I-45], the Ki [1, 3] was under 100 nM and the IC50 [2, 4] was 100 to 5000 nM.
With `C=C1CN(S(=O)(=O)c2ccc(OC(C)C)cc2)CC1n1nc(CC(=O)O)c2ccc(F)cc21` (stereo not drawn) [Compound I-43] the Ki [1, 3] was under 100 nM and the IC50 [2, 4] was 100 to 5000 nM.
With `CCOc1ccc(S(=O)(=O)N2C[C@@H](C)[C@@H](n3nc(CC(=O)O)c4cc5c(cc43)OCO5)C2)cc1` [Compound I-175] the Ki [1, 3] was under 100 nM and the IC50 [2, 4] was 100 to 5000 nM.
`CC(C)Oc1ccc(S(=O)(=O)N2C[C@@H](C)[C@@H](n3nc(CC(=O)O)c4cccc(F)c43)C2)cc1` [Compound I-59] showed a Ki [1, 3] of under 100 nM, a Ki [1, 5] of 23 nM and an IC50 [2, 4] of 100 to 5000 nM.
`CCOc1ccc(S(=O)(=O)N2C[C@@H](C)[C@@H](n3nc(Cc4noc(=O)[nH]4)c4ccccc43)C2)cc1` [Compound I-296] gave a Ki [1, 3] of 100 to 5000 nM and an IC50 [2, 4] of 100 to 5000 nM.
`CCOCCCOc1ccc(S(=O)(=O)N2C[C@@H](C)[C@@H](n3nc(CC(=O)O)c4ccccc43)C2)cc1` [Compound I-273] was tested, and the Ki [1, 3] was 100 to 5000 nM and the IC50 [2, 4] was 100 to 5000 nM.
`CC(C)Oc1ccc(S(=O)(=O)N2C[C@H](n3nc(CC(=O)O)c4ccc(Cl)cc43)C[C@@H]2C)cc1` [Compound I-95] was tested, and the Ki [1, 3] was under 100 nM and the IC50 [2, 4] was under 100 nM.
Molecule `CCOc1ccc(S(=O)(=O)N2C[C@@H](C)[C@@H](n3nc(CC(=O)O)c4ccc(C5CCCCC5)cc43)C2)cc1` [Compound I-223] has a Ki [1, 3] of under 100 nM and an IC50 [2, 4] of 100 to 5000 nM.
`Cc1c(CC(=O)O)c2ccccc2n1[C@@H]1C[C@H](C)N(S(=O)(=O)c2ccc(OC(F)F)cc2)C1` [Compound I-316] gave a Ki [1, 3] of 100 to 5000 nM, a Ki [1, 5] of 220 nM and an IC50 ([2]; IC50 of PGD2 (60 nM)-induced cAMP increase, human DP1 receptor expressing Jurkut cell) of 110 nM. It also gave an IC50 [2, 4] of 100 to 5000 nM.
`C[C@@H]1CN(S(=O)(=O)c2ccc(OC(F)F)cc2)C[C@@H]1n1nc(CC(=O)O)c2ccc(C(F)(F)F)cc21` [Compound I-127] showed a Ki [1, 3] of under 100 nM and an IC50 [2, 4] of under 100 nM.
`CC(C)Oc1ccc(S(=O)(=O)N2C[C@@H](C)[C@@H](n3nc(CC(=O)O)c4ccc(Cl)cc43)C2)cn1` [Compound I-146] was tested, and the Ki [1, 3] was under 100 nM and the IC50 [2, 4] was under 100 nM.
`CC(C)Oc1ccc(S(=O)(=O)N2[C@@H]3CC[C@H]2C[C@H](n2nc(CC(=O)O)c4ccc(F)cc42)C3)cc1` [Compound I-81] showed a Ki [1] of 100 to 5000 nM and an IC50 [2, 4] of 100 to 5000 nM.
`CCOc1ccc(S(=O)(=O)N2C[C@@H](C)[C@@H](n3nc(CC(=O)O)c4ccccc43)C2)c(C(C)O)c1` (stereo partly drawn) [Compound I-312] gave a Ki [1, 3] of under 100 nM and an IC50 [2, 4] of under 100 nM.
For `CC(C)Oc1ccc(S(=O)(=O)N2C[C@H](n3nc(CC(=O)O)c4ccc(F)cc43)C[C@H]2COc2nc3ccccc3s2)cc1` [Compound I-300], the Ki [1, 3] was under 100 nM and the IC50 [2, 4] was 100 to 5000 nM.
Molecule `CCOc1ccc(S(=O)(=O)N2C[C@H](n3nc(CC(=O)O)c4ccccc43)C[C@@H]2C)cc1` [Compound I-196] has a Ki [1, 3] of under 100 nM and an IC50 [2, 4] of under 100 nM.
`CCOc1ccc(S(=O)(=O)N2C[C@@H](C)[C@@H](n3nc(CC(=O)O)c4ccc(C(F)(F)F)cc43)C2)cc1` [Compound I-129] showed a Ki [1, 3] of under 100 nM and an IC50 [2, 4] of under 100 nM.
`CC(C)Oc1ccc(S(=O)(=O)N2C[C@H](n3nc(CC(=O)O)c4ccc(F)cc43)C[C@H]2C)cc1` [Compound I-10] showed a Ki [1, 3] of under 100 nM, a Ki [1, 5] of 8.2 nM and an IC50 [2, 4] of 100 to 5000 nM.
